Data: patent US11278567B2, “Methods of modifying neuronal function by changing intracellular magnesium levels” (Neurocentria, Inc., priority 2016, dated 2022)
“And” between values parts separate entries of the source, which are not always exact repeats. Equal entries are not always repeated. “Also recorded” adds a separate entry of the source.

Assays:
Assay type in all cases: cell-based, Sprague-Dawley rats
[1] = test system: hippocampal CA3-CA1 pyramidal neurons; assay: Intracellular Mg2+ measurement with Magnesium Green-AM (MgGrn); conditions: for [Mg2+]i after blockade of axonal transport: 0.5 mM
Experimental: (§1) High-density primary cultures of hippocampal CA3-CA1 pyramidal neurons of neonatal Sprague-Dawley rats (<24 hr) were used in the current study, as described before (Slutsky et al., Neuron. 2004; 44(5):835-49). The neurons were cultured on 1 #coverslips (8 mm×8 mm) for 14-28 days in vitro (div) before use. [Mg^2+]o in culture medium was adjusted to different concentrations according to experimental designs. In each experiment, sister cultures from the same batch were always used for treatment and control conditions on the same day, and the experimental results were repeated using several different batches.
The mature cultures were incubated in Tyrode's solution with 2 μM Magnesium Green™-AM (MgGrn, an intracellular Mg^2+ indicator, Invitrogen) for 30 min and washed out for 20 min; both at 37° C. Fluorescent images of several AOIs in each coverslip were taken on FV300 at RT. In the current study, the MgGrn fluorescence at basal condition (without eliciting any AP stimulus) (FIG. 1A) was measured to eliminate any effects caused by AP-induced intracellular Ca^2+ fluctuations. Since the intracellular Ca^2+ concentration ([Ca^2+]i) at basal condition was usually <100 nM, the contribution of Ca^2+ to MgGrn fluorescence was very small. Thus, the fluorescent intensity of MgGrn could be considered proportional to [Mg^2+]i. Since the measured MgGrn fluorescence was also dependent on the local volume of branches in network, a physical model was built to describe this phenomenon and the calculating formula that corrected the effect of varying local volumes was derived.
In the experiments, given a randomly selected AOI of dendritic area (the image was obtained as described above), 50-100 branches were randomly selected from each AOI and the mean intensity of fluorescence (i.e. F(z)max) of each branch was measured. Meanwhile, the diameter of each branch (d) was measured from the DIC image, then the F(z)max/d was calculated to represent the [Mg^2+]i in the branch. The mean value of these 50-100 branches was calculated to represent the level of [Mg^2+]i in the AOI. […]

[2] = test system: hippocampal CA3-CA1 pyramidal neurons; assay: In vitro immunofluorescence quantification of presynaptic proteins in terminals
Experimental: as §1
The neurons were fixed in 1×PBS (pH 7.4) containing 1% Paraformaldehyde (E.M.S.), 0.01% Glutaraldehyde (Alfa Aesar) and 4% Sucrose (Amresco) for 1 hr RT. […]
For FIG. 3B, the average density of immunoreactive puncta of a given AOI was calculated from the total puncta number divided by the total MAP2(+) area; the values from several AOIs were averaged to represent the average puncta density in a coverslip; for each data bar, the mean±SEM of these coverslips were presented. […] For FIGS. 5C and 5D, the mean fluorescence intensity per pixel in each cell body was measured (the somatic area of each cell body was measured from DIC image) and then the mean±SEM of all the cell bodies were presented. […]

[3] = test system: hippocampal CA3-CA1 pyramidal neurons; assay: Functional terminal density (N5AP): FM dye vesicle turnover under 5AP bursts; conditions: for N5AP after blockade of axonal transport: 0.5 mM
Experimental: as §1
Vesicle turnover in response to bursting action potentials (see below) is a measure of the functional status of a presynaptic terminal. FM dyes were used to visualize the vesicle turnover of presynaptic terminals. In the current study, 10 μM FM1-43 or 20 μM FM4-64 (Biotium) was loaded under different patterns of field stimulations, such as 5AP bursts (5 action potentials (Aps) at 100 Hz for each burst, 6 bursts (30 APs totally) with 10 s inter burst interval were given) and “maximal stimulation” (600 APs at 10 Hz). Releasable fluorescence in the AOI (ΔF) was obtained from the difference of loading (F1) and unloading (F2) images, i.e. ΔF=F1−F2 (see FIG. 1A). For FIG. 3C, the loading/unloading procedures were performed under 5AP bursts and 600AP stimulation at the same area of network successively. Subsequently, the ΔF5AP and ΔF600AP images were registered to colocalize the vesicle turnover for these two stimulating protocols for individual terminals.
The functional terminal density (N5AP) at a dendritic branch was defined as the number of 5AP bursting stimulation induced FM(+) puncta (#FM5AP) per unit area of dendritic branch (A), N5AP=#FM5AP/A. […] immunofluorescence (IF) staining of MAP2 (as described below), which specifically presents in dendritic skeleton, was used to label dendritic area and A was calculated from MAP2(+) area. To limit the error of A introduced by the immunoreactivity of MAP2(+), the staining and imaging parameters were rigorously controlled in different batches of IF and the grey-scale histograms of MAP2(+) images were equalized before measuring A. Here, to ensure the equalized MAP2(+) marked area could reflect the real morphology of dendrites, the parameters of histogram equalization were set based on the comparison of MAP2(+) and DIC images. For most experiments, the average N5AP of an AOI was calculated from the total number of FM(+) puncta divided by total MAP2(+) area to reduce the sampling error. Then the mean N5AP of all AOIs (1-5 AOIs/coverslip) was used to represent the average N5AP in a coverslip; for each statistical data point, several coverslips were used and the mean±standard error of the mean (SEM) of all coverslips was represented (see figure legends). For FIGS. 3B and D, the FM(+) puncta density induced by 600AP stimulation was also calculated and presented in the same way as described above. Exceptionally, for FIG. 2B, each point represented the N5AP at a single segment of dendritic branch. In general, in an AOI (59 μm×59 μm, with varying dendritic density) 351-1598 presynaptic functional terminals could be detected by FM dyes for different experimental groups under 5AP bursting stimulation.

[4] = test system: hippocampal CA3-CA1 pyramidal neurons; assay: Mitochondrial status assessment (JC-1 membrane potential, mitochondrial density)
Experimental: The neurons were cultured on 1 #coverslips (8 mm×8 mm) for 14-28 days in vitro (div) before use. [Mg^2+]o in culture medium was adjusted to different concentrations according to experimental designs.
For FIG. 7A, mitochondria were marked with 40 nM Mitoview633 (Biotium) for 15 min and then washed out in blank medium for 15 min, both at 37° C. For FIG. 6A, the membrane potential-sensitive fluorescent dye JC-1 (1 μM) (Invitrogen) was used. JC-1 was incubated for 15 min followed by a 15 min washout at 37° C. Fluorescent images were taken on FV300 confocal. Mitochondrial membrane potential (ΔΨ) of each mitochondrion was estimated by the ratio of fluorescence of aggregate versus monomer form of JC-1, i.e. Faggr/Fmono. JC-1 was excited by 488 nm laser and the emission spectra were collected at 510-575 nm and >575 nm at the same time separately. Then the ratio of fluorescence at >575 nm versus at 510-575 nm (Faggr/Fmono) was calculated for each individual mitochondrial punctum to represent the ΔΨ of that mitochondrion. To estimate the valid range of Faggr/Fmono, Faggr/Fmono of individual mitochondria was measured before and after administering 5 μM Carbonyl cyanide 4-(trifluoromethoxy)phenylhydrazone (FCCP) 5 min at the same AOI. […] Faggr/Fmono was calculated for each individual meaningful punctum and the mean value of population was calculated from all the puncta to represent the general ΔΨ in this AOI. 3-5 AOIs were measured for each coverslip and the mean of the AOIs were calculated to represent the average ΔΨ of the coverslip. For each bar or point in FIG. 6, several coverslips were used (described in legends). The density of mitochondria (Nmito) was also quantified by counting the number of JC-1-aggregate(+) fluorescent puncta (FIG. 6) or MitoView633(+) puncta (FIG. 7) per area of branches.

[5] = test system: hippocampal CA3-CA1 pyramidal neurons; assay: Probability of transmitter release (Pr) in individual boutons, FM dye; conditions: [Mg2+]o elevated from 0.8 to 1.2 mM for four hours; single action potential input
Experimental: FIGS. 25Aa to 25B. Intracellular Mg^2+ is a negative regulator of Pr. (FIG. 25Aa-25Ac) Inverse relationship between Pr and intracellular Mg^2+ concentration ([Mg^2+]i) in individual boutons. For individual terminals, the higher the [Mg^2+]i, the lower the Pr. (FIG. 25Aa) [Mg^2+]i and Pr in individual boutons were determined by Magnesium Green (MgGrn) and FM4-64, respectively. (FIG. 25Ab) Pr was negatively associated with [Mg^2+]i in individual boutons in a synaptic network. (FIG. 25Ac) Pr was linearly correlated with 1/[Mg^2+]i. […] Extracellular Mg^2+ concentration ([Mg^2+]o) was elevated from 0.8 to 1.2 mM for four hours to increase [Mg^2+]i.
FIGS. 26A and 26B. (FIG. 26A) Representative DIC and FM1-43 images comparing presynaptic responses to single (“1AP”: 30AP0.5 Hz) and bursting (“5AP”: 6 groups of 5 APs at 100 Hz, ISI 10 sec) stimulus at low (0.8 mM) and high (1.2 mM) [Mg^2+]o. (FIG. 26B) Quantitative analysis of images from FIG. 26A. ***p<0.001. For methods see Slutsky et al, 2004, and Example 1. 2AP and 3AP refer to 6 groups of 2 APs at 100 Hz or 3 APs at 100 Hz, respectively.

[6] = elevating Mg2+ level for long term (>48 hr)

COc1cc2c(c(OC)c1OC)-c1ccc(OC)c(=O)cc1[C@@H](NC(C)=O)CC2 [Colchicine]
[Mg2+]i after blockade of axonal transport ([1]; at the high [Mg2+]o condition): without change
[Mg2+]i after blockade of axonal transport ([1]; while increasing [Mg2+]o): did not prevent elevation
concentration of presynaptic proteins in terminals ([2]; 0.5 mM, as a function of blocking time, low and high [Mg2+]o): decrease; also recorded: decreased linearly
N5AP after blockade of axonal transport ([3]; at the high [Mg2+]o condition): remarkable reduction
N5AP after blockade of axonal transport ([3]; while increasing [Mg2+]o): prevented the increase

N#CC(C#N)=NNc1ccc(OC(F)(F)F)cc1 [FCCP, Carbonyl cyanide 4-(trifluoromethoxy)phenylhydrazone, reference compound]
mean Faggr/Fmono of all mitochondria (JC-1, ΔΨ) ([4]; 5 μM, 5 min, from 1.21±0.02 before): 0.26±0.002

CN(C)CCCN1c2ccccc2CCc2ccccc21 [Imipramine]
[Mg2+]i (MgGrn fluorescence) ([1]; 1 μM for 4 hr): elevation
functional terminal density (N5AP) ([3]; 1 μM for 4 hr added to Ctrl ([Mg2+]o 0.8 mM), 5AP bursts): increased
persistence of N5AP enhancement ([3]; after 1 μM for 4 hr): ~32 h

[Mg+2] [Mg^2+]
increase in expression of Ca2+ sensor (SYT1) and coupling proteins in terminals ([2]; high [Mg2+]o (1.2 4 hr) vs Ctrl 0.8): 30-44%
terminals functional in response to 5AP bursts (of 600AP-releasable terminals) ([3]; [Mg2+]o elevated from 0.8 to 1.2 mM for 4 hr): 90.6±2.9% and ~90%
probability of release (Pr) [5]: reduced
increase in mitochondrial membrane potential (ΔΨ) ([4]; elevating Mg2+ for 4 hr): ~39%
increase in general mitochondrial function (Nmito×ΔΨ) ([4]; elevating Mg2+ level for 4 hr): ~68% and 67.8±12.4%
increase in mitochondrial density (Nmito) in distal branches ([4]; elevating Mg2+ level for 4 hr): ~20% and 19.4±2.9%
increase in general mitochondrial function (Nmito×ΔΨ) [4, 6]: 56.2±6.5%
increase in mitochondrial density (Nmito) in distal branches [4, 6]: 19.6±2.1%
